Laboratory results reported in PubChem BioAssay AID1845196 (Molecular Pharmacology Branch, DTP, NCI, 2023).
pIC50: −log10 of the molar value.

Tested on: 292921-168-R tumor spheroid viability
Assay: Anticancer human tumor 292921-168-R patient-derived pancreatic carcinoma cell line growth inhibition
Conditions: spheroids with HUVEC and MSC; for pIC50: curve of first compound; for viability, T/C: stronger effect = lower value; active means viability on the fitted dose curve at most 10% of control; inactive means the rest
Summary of the method: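 Complex spheroids of malignant cells with endothelial cells and mesenchymal stem cells; agents alone or combined, from near clinical Cmax (or 10 microM if unknown) down in half-log steps, 0.25% DMSO final.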
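Further: spheroids exposed to compounds for 7 days.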

Cc1cc(C)c(CNC(=O)c2cc(-c3ccc(CN4CCOCC4)cc3)cc3c2cnn3C2CCCC2)c(=O)[nH]1 + Cn1nnc2c(C(N)=O)ncn2c1=O
< 5.00: pIC50 (second compound 1 µM) | pIC50 (second compound 3.16 µM) | pIC50 (second compound 10 µM) | pIC50 (second compound 31.6 µM) | pIC50 (second compound 100 µM)
inactive: viability, T/C (second compound 1 µM, first compound 0.0316 µM) 91.6% | viability, T/C (second compound 1 µM, first compound 0.1 µM) 92.7% | viability, T/C (second compound 1 µM, first compound 0.316 µM) 97.4% | viability, T/C (second compound 1 µM, first compound 1 µM) 86.6% | viability, T/C (second compound 1 µM, first compound 3.16 µM) 78.7% | viability, T/C (second compound 1 µM, first compound 10 µM) 54.3% | viability, T/C (second compound 3.16 µM, first compound 0.0316 µM) 94.2% | viability, T/C (second compound 3.16 µM, first compound 0.1 µM) 96.6% | viability, T/C (second compound 3.16 µM, first compound 0.316 µM) 94.9% | viability, T/C (second compound 3.16 µM, first compound 1 µM) 92.4% | viability, T/C (second compound 3.16 µM, first compound 3.16 µM) 85.2% | viability, T/C (second compound 3.16 µM, first compound 10 µM) 60.4% | viability, T/C (second compound 10 µM, first compound 0.0316 µM) 86.8% | viability, T/C (second compound 10 µM, first compound 0.1 µM) 94.4% | viability, T/C (second compound 10 µM, first compound 0.316 µM) 96% | viability, T/C (second compound 10 µM, first compound 1 µM) 92.5% | viability, T/C (second compound 10 µM, first compound 3.16 µM) 83.7% | viability, T/C (second compound 10 µM, first compound 10 µM) 56.1% | viability, T/C (second compound 31.6 µM, first compound 0.0316 µM) 88.5% | viability, T/C (second compound 31.6 µM, first compound 0.1 µM) 86.4% | viability, T/C (second compound 31.6 µM, first compound 0.316 µM) 83.5% | viability, T/C (second compound 31.6 µM, first compound 1 µM) 92.5% | viability, T/C (second compound 31.6 µM, first compound 3.16 µM) 85.7% | viability, T/C (second compound 31.6 µM, first compound 10 µM) 51.1% | viability, T/C (second compound 100 µM, first compound 0.0316 µM) 83.5% | viability, T/C (second compound 100 µM, first compound 0.1 µM) 87.2% | viability, T/C (second compound 100 µM, first compound 0.316 µM) 83.5% | viability, T/C (second compound 100 µM, first compound 1 µM) 77.2% | viability, T/C (second compound 100 µM, first compound 3.16 µM) 79.1% | viability, T/C (second compound 100 µM, first compound 10 µM) 52.5%

Cn1ncnc1[C@H]1c2n[nH]c(=O)c3cc(F)cc(c23)N[C@@H]1c1ccc(F)cc1 + CC[C@@]1(O)C(=O)OCc2c1cc1n(c2=O)Cc2cc3c(CN(C)C)c(O)ccc3nc2-1
active: viability, T/C (second compound 0.03 µM, first compound 3 µM) 8.5% | viability, T/C (second compound 0.0949 µM, first compound 0.0949 µM) 9.81% | viability, T/C (second compound 0.0949 µM, first compound 0.3 µM) 8.52% | viability, T/C (second compound 0.0949 µM, first compound 0.949 µM) 7.84% | viability, T/C (second compound 0.0949 µM, first compound 3 µM) 5.32% | viability, T/C (second compound 0.3 µM, first compound 0.00949 µM) 4.91% | viability, T/C (second compound 0.3 µM, first compound 0.03 µM) 5.12% | viability, T/C (second compound 0.3 µM, first compound 0.0949 µM) 4.52% | viability, T/C (second compound 0.3 µM, first compound 0.3 µM) 4.48% | viability, T/C (second compound 0.3 µM, first compound 0.949 µM) 3.83% | viability, T/C (second compound 0.3 µM, first compound 3 µM) 2.41%
6.74: pIC50 (second compound 0.003 µM)
> 8.02: pIC50 (second compound 0.03 µM) | pIC50 (second compound 0.0949 µM) | pIC50 (second compound 0.3 µM)
7.88: pIC50 (second compound 0.00949 µM)
inactive: viability, T/C (second compound 0.003 µM, first compound 0.00949 µM) 82.7% | viability, T/C (second compound 0.003 µM, first compound 0.03 µM) 73.9% | viability, T/C (second compound 0.003 µM, first compound 0.0949 µM) 57.4% | viability, T/C (second compound 0.003 µM, first compound 0.3 µM) 41% | viability, T/C (second compound 0.003 µM, first compound 0.949 µM) 31.4% | viability, T/C (second compound 0.003 µM, first compound 3 µM) 12% | viability, T/C (second compound 0.00949 µM, first compound 0.00949 µM) 52.6% | viability, T/C (second compound 0.00949 µM, first compound 0.03 µM) 44.7% | viability, T/C (second compound 0.00949 µM, first compound 0.0949 µM) 33.8% | viability, T/C (second compound 0.00949 µM, first compound 0.3 µM) 30.1% | viability, T/C (second compound 0.00949 µM, first compound 0.949 µM) 19.5% | viability, T/C (second compound 0.00949 µM, first compound 3 µM) 12.9% | viability, T/C (second compound 0.03 µM, first compound 0.00949 µM) 23.6% | viability, T/C (second compound 0.03 µM, first compound 0.03 µM) 21.1% | viability, T/C (second compound 0.03 µM, first compound 0.0949 µM) 17.4% | viability, T/C (second compound 0.03 µM, first compound 0.3 µM) 16.9% | viability, T/C (second compound 0.03 µM, first compound 0.949 µM) 14.5% | viability, T/C (second compound 0.0949 µM, first compound 0.00949 µM) 11% | viability, T/C (second compound 0.0949 µM, first compound 0.03 µM) 10.7%
